Patent US20220073525A1, “COMPOSITIONS FOR INHIBITING UBIQUITIN SPECIFIC PROTEASE 1” (FORMA Therapeutics, Inc., priority 2019, published 2022)

Molecular target: USP1 (Homo sapiens, UniProt O94782)
Experiment: Biochemical Assay for USP1 Inhibition (Ub-Rho 110 fluorescence)
Conditions: Table 5; 30 min preincubation, Enzyme 0.025 nM, Substrate Ub-Rho 110 25 nM; read-out: IC50 (μm)
Procedure: The assay was performed in a final volume of 6 μL in assay buffer containing 20 mM Tris-HCl pH 8.0, (1 M Tris-HCl, pH 8.0 solution; Corning 46-031-CM), 1 mM GSH (L-glutathione reduced, Sigma-Aldrich, G4251-100G), 0.03% BGG (0.22 μM filtered, Sigma, G7516-25G), and 0.01% Triton X-100 (Sigma, T9284-10L). Nanoliter quantities of 10-point, 3-fold serial dilution in DMSO were pre-dispensed into 1536 assay plates (Corning, #3724BC) for a final test concentration of 25 μM to 1.3 nM, top to lowest dose, respectively. Concentration and incubation times were optimized for the maximal signal-to-background while maintaining initial velocity conditions at a fixed substrate concentration (<<Km). 3 μL of 2× Enzyme was added to assay plates (pre-stamped with compound), preincubated for 30 min, and then treated with 3 μL of 2× Substrate (Ub-Rho 110, UbiQ-126). Final concentrations of Enzyme and Substrate are 0.025 nM and 25 nM, respectively. Plates were read using a kinetic protocol continuously for 11 min on the Envision (Perkin Elmer) or PheraSTAR (BMG), excitation at 485 nm and emission at 535 nm or excitation at 520 nm and emission at 590 nm. For all assay formats, data were reported as percent inhibition compared with control wells based on the following equation: % inh=100*([…]), where FLU=measured Fluorescence, AveLow=average Fluorescence of no enzyme control (n=32), and AveHigh=average Fluorescence of DMSO control (n=32). IC50 values were determined by curve fitting of the standard 4 parameter logistic fitting algorithm included in the Activity Base software package: TDBS XE Designer Model205. Data is fitted using the Levenburg Marquardt algorithm.
In Table 5, absolute stereochemistry has not been determined for some Compounds. Accordingly, assignment ofany Compounds as the “R” or “S” stereoisomer is arbitrary, unless otherwise noted. In some cases, Compounds are labeled with “1st eluting isomer”, “2nd eluting isomer”, etc. based on the purification method used to separate the stereoisomers.

USP1, sequence (O94782 whole entry): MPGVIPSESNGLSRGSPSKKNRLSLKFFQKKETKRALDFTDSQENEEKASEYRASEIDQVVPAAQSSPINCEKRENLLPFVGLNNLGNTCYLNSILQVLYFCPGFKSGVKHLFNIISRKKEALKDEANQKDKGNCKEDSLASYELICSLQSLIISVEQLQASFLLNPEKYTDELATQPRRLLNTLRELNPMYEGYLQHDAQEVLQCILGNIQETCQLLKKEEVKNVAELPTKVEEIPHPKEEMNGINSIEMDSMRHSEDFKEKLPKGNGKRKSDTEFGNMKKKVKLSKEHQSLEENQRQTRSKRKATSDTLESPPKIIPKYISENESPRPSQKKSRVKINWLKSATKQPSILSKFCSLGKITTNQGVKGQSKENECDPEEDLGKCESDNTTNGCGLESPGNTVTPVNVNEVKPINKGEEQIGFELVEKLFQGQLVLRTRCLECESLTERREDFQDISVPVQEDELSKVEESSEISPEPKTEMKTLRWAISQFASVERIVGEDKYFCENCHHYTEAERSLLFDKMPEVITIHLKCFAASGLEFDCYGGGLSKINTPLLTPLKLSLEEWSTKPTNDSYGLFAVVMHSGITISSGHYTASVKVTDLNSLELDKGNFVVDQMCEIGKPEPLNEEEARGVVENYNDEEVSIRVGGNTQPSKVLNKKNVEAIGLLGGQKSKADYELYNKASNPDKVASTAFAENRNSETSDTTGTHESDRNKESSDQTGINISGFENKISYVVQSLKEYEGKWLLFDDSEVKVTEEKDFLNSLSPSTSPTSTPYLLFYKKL
USP1, sequence (Q8TAF3 whole entry partner): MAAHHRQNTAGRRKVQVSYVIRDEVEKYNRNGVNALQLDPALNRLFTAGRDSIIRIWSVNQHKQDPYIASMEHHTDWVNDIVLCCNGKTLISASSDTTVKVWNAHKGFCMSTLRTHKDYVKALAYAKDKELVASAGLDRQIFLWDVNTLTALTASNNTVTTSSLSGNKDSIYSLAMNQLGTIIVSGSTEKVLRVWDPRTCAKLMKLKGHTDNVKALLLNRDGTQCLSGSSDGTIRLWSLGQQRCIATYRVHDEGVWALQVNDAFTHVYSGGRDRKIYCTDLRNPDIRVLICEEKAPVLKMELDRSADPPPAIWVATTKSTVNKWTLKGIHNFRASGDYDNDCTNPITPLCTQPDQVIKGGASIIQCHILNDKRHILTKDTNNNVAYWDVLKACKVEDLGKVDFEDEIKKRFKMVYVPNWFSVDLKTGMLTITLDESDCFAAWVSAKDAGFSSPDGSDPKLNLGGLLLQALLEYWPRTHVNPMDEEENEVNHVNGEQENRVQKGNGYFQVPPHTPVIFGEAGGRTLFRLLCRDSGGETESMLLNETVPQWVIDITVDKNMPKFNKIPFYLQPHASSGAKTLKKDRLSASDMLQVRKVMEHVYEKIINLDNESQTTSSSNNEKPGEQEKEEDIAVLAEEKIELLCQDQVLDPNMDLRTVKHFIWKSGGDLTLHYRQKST

| SMILES | IC50 [µM] |
| --- | --- |
| Cc1nc(-c2cccnc2C(C)C)c2n1CCN(c1cc(N3CCCCC3)ncn1)C2 [Compound 19, 4-{3-methyl-1-[2-(propan-2-yl)pyridin-3-yl]-5H,6H,7H,8H-imidazo[1,5-a]pyrazin-7-yl}-6-(piperidin-1-yl)pyrimidine] | 10 to 25 |
| Cc1nc(-c2cccnc2OC(C)C)c2n1CCN(c1ccc(-c3nc(C(F)(F)F)cn3C)cc1)C2 [Compound 20, 3-(3-methyl-7-{4-[1-methyl-4-(trifluoromethyl)-1H-imidazol-2-yl]phenyl}-5H,6H,7H,8H-imidazo[1,5-a]pyrazin-1-yl)-2-(propan-2-yloxy)pyridine] | ≤ 1 |
| Cc1ccc(N2CCn3c(C)nc(-c4cccnc4C(C)C)c3C2)cc1 [Compound 21, 3-[3-methyl-7-(4-methylphenyl)-5H,6H,7H,8H-imidazo[1,5-a]pyrazin-1-yl]-2-(propan-2-yl)pyridine] | 10 to 25 |
| COc1ccc(N2CCn3c(C)nc(-c4cccnc4C(C)C)c3C2)cn1 [Compound 22, 2-methoxy-5-{3-methyl-1-[2-(propan-2-yl)pyridin-3-yl]-5H,6H,7H,8H-imidazo[1,5-a]pyrazin-7-yl}pyridine] | 10 to 25 |
| Cc1nc(-c2cccnc2C(C)C)c2n1CCN(c1ccc(OCCN3CCOCC3)cc1)C2 [Compound 23, 4-[2-(4-{3-methyl-1-[2-(propan-2-yl)pyridin-3-yl]-5H,6H,7H,8H-imidazo[1,5-a]pyrazin-7-yl}phenoxy)ethyl]morpholine] | 10 to 25 |
| CC(C)c1ncccc1-c1nc(C2CC2)n2c1CN(c1ccc(-c3nc(C(F)(F)F)cn3C)cc1)CC2 [Compound 24, 3-(3-cyclopropyl-7-{4-[1-methyl-4-(trifluoromethyl)-1H-imidazol-2-yl]phenyl}-5H,6H,7H,8H-imidazo[1,5-a]pyrazin-1-yl)-2-(propan-2-yl)pyridine] | ≤ 1 |
| Cc1nc(-c2cccnc2C(C)C)c2n1CCN(c1ccc(-c3nc(C(F)(F)F)cn3C3COC3)cc1)C2 [Compound 25, 3-(3-methyl-7-{4-[1-(oxetan-3-yl)-4-(trifluoromethyl)-1H-imidazol-2-yl]phenyl}-5H,6H,7H,8H-imidazo[1,5-a]pyrazin-1-yl)-2-(propan-2-yl)pyridine] | ≤ 1 |
| CNC(=O)c1ccc(N2CCn3c(C)nc(-c4cccnc4C(C)C)c3C2)cc1 [Compound 26, N-methyl-4-{3-methyl-1-[2-(propan-2-yl)pyridin-3-yl]-5H,6H,7H,8H-imidazo[1,5-a]pyrazin-7-yl}benzamide] | > 25 |
| Cc1nc(-c2cccnc2C(C)C)c2n1CCN(c1ccc(-c3cncn3C)cc1)C2 [Compound 28, 3-{3-methyl-7-[4-(1-methyl-1H-imidazol-5-yl)phenyl]-5H,6H,7H,8H-imidazo[1,5-a]pyrazin-1-yl}-2-(propan-2-yl)pyridine] | > 25 |
| Cc1nc(-c2cccnc2C(C)C)c2n1CCN(c1ccc(C3CCCNC3=O)cc1)C2 (centres unmarked) [Compound 29, 3-(4-{3-methyl-1-[2-(propan-2-yl)pyridin-3-yl]-5H,6H,7H,8H-imidazo[1,5-a]pyrazin-7-yl}phenyl)piperidin-2-one] | > 25 |
| Cc1nc(-c2cccnc2C(C)C)c2n1CCN(c1ccc(N3CCOCC3)cc1)C2 [Compound 30, 4-(4-{3-methyl-1-[2-(propan-2-yl)pyridin-3-yl]-5H,6H,7H,8H-imidazo[1,5-a]pyrazin-7-yl}phenyl)morpholine] | > 25 |
| Cc1ccn(-c2ccc(N3CCn4c(C)nc(-c5cccnc5C(C)C)c4C3)cc2)n1 [Compound 31, 3-{3-methyl-7-[4-(3-methyl-1H-pyrazol-1-yl)phenyl]-5H,6H,7H,8H-imidazo[1,5-a]pyrazin-1-yl}-2-(propan-2-yl)pyridine] | ≤ 1 |
| Cc1nc(-c2cccnc2C(C)C)c2n1CCN(c1ccc(C3=CCON3)cc1)C2 [Compound 32, 3-{7-[4-(2,5-dihydro-1,2-oxazol-3-yl)phenyl]-3-methyl-5H,6H,7H,8H-imidazo[1,5-a]pyrazin-1-yl}-2-(propan-2-yl)pyridine] | 1 to 10 |
| Cc1nc(-c2cccnc2C(C)C)c2n1CCN(c1ccc(-n3ccnn3)cc1)C2 [Compound 33, 3-{3-methyl-7-[4-(1H-1,2,3-triazol-1-yl)phenyl]-5H,6H,7H,8H-imidazo[1,5-a]pyrazin-1-yl}-2-(propan-2-yl)pyridine] | 10 to 25 |
| Cc1nc(-c2cccnc2C(C)C)c2n1CCN(c1ccc(C3CNC(=O)C3)cc1)C2 (centres unmarked) [Compound 34, 4-(4-{3-methyl-1-[2-(propan-2-yl)pyridin-3-yl]-5H,6H,7H,8H-imidazo[1,5-a]pyrazin-7-yl}phenyl)pyrrolidin-2-one] | > 25 |
| Cc1cc(N2CCn3c(C)nc(-c4cccnc4C(C)C)c3C2)ccc1N1CCCC1=O [Compound 35, 1-(2-methyl-4-{3-methyl-1-[2-(propan-2-yl)pyridin-3-yl]-5H,6H,7H,8H-imidazo[1,5-a]pyrazin-7-yl}phenyl)pyrrolidin-2-one] | > 25 |
| Cc1nc(-c2cccnc2C(C)C)c2n1CCN(c1ccc(N3CCC(O)C3)cc1)C2 (centres unmarked) [Compound 36, 1-(4-{3-methyl-1-[2-(propan-2-yl)pyridin-3-yl]-5H,6H,7H,8H-imidazo[1,5-a]pyrazin-7-yl}phenyl)pyrrolidin-3-ol] | 10 to 25 |
| Cc1nc(-c2cccnc2C(C)C)c2n1CCN(c1ccc(C3COC(=O)N3)cc1)C2 (centres unmarked) [Compound 37, 4-(4-{3-methyl-1-[2-(propan-2-yl)pyridin-3-yl]-5H,6H,7H,8H-imidazo[1,5-a]pyrazin-7-yl}phenyl)-1,3-oxazolidin-2-one] | > 25 |
| Cc1nc(-c2cccnc2C(C)C)c2n1CCN(c1ccc(N3CCCCC3=O)cc1)C2 [Compound 38, 1-(4-{3-methyl-1-[2-(propan-2-yl)pyridin-3-yl]-5H,6H,7H,8H-imidazo[1,5-a]pyrazin-7-yl}phenyl)piperidin-2-one] | > 25 |
| Cc1nnnn1-c1ccc(N2CCn3c(C)nc(-c4cccnc4C(C)C)c3C2)cc1 [Compound 39, 3-{3-methyl-7-[4-(5-methyl-1H-1,2,3,4-tetrazol-1-yl)phenyl]-5H,6H,7H,8H-imidazo[1,5-a]pyrazin-1-yl}-2-(propan-2-yl)pyridine] | > 25 |
| Cc1nc(-c2cccnc2C(C)C)c2n1CCN(c1ccc(-c3nnn(C)n3)cc1)C2 [Compound 40, 3-{3-methyl-7-[4-(2-methyl-2H-1,2,3,4-tetrazol-5-yl)phenyl]-5H,6H,7H,8H-imidazo[1,5-a]pyrazin-1-yl}-2-(propan-2-yl)pyridine] | 1 to 10 |
| Cc1nc(-c2cccnc2C(C)C)c2n1CCN(c1ccc(-c3ncccn3)cc1)C2 [Compound 41, 2-(4-{3-methyl-1-[2-(propan-2-yl)pyridin-3-yl]-5H,6H,7H,8H-imidazo[1,5-a]pyrazin-7-yl}phenyl)pyrimidine] | 1 to 10 |
| Cc1nc(-c2cccnc2C(C)C)c2n1CCN(c1ccc(-n3cnnc3)cc1)C2 [Compound 42, 3-{3-methyl-7-[4-(4H-1,2,4-triazol-4-yl)phenyl]-5H,6H,7H,8H-imidazo[1,5-a]pyrazin-1-yl}-2-(propan-2-yl)pyridine] | > 25 |
| Cc1nc(-c2cccnc2C(C)C)c2n1CCN(c1ccc(N3CCCC3=O)cc1)C2 [Compound 43, 1-(4-{3-methyl-1-[2-(propan-2-yl)pyridin-3-yl]-5H,6H,7H,8H-imidazo[1,5-a]pyrazin-7-yl}phenyl)pyrrolidin-2-one] | 1 to 10 |
| Cc1nnc(-c2ccc(N3CCn4c(C)nc(-c5cccnc5C(C)C)c4C3)cc2)o1 [Compound 44, 3-{3-methyl-7-[4-(5-methyl-1,3,4-oxadiazol-2-yl)phenyl]-5H,6H,7H,8H-imidazo[1,5-a]pyrazin-1-yl}-2-(propan-2-yl)pyridine] | 1 to 10 |
| Cc1nc(-c2ccc(N3CCn4c(C)nc(-c5cccnc5C(C)C)c4C3)cc2)cn1C [Compound 45, 3-{7-[4-(1,2-dimethyl-1H-imidazol-4-yl)phenyl]-3-methyl-5H,6H,7H,8H-imidazo[1,5-a]pyrazin-1-yl}-2-(propan-2-yl)pyridine] | ≤ 1 |
| Cc1nc(-c2cccnc2C(C)C)c2n1CCN(c1ccc(C3(O)COC3)cc1)C2 [Compound 46, 3-(4-{3-methyl-1-[2-(propan-2-yl)pyridin-3-yl]-5H,6H,7H,8H-imidazo[1,5-a]pyrazin-7-yl}phenyl)oxetan-3-ol] | > 25 |
| Cc1nc(-c2cccnc2C(C)C)c2n1CCN(c1ccc(-n3ccnc3)cc1)C2 [Compound 47, 3-{7-[4-(1H-imidazol-1-yl)phenyl]-3-methyl-5H,6H,7H,8H-imidazo[1,5-a]pyrazin-1-yl}-2-(propan-2-yl)pyridine] | > 25 |
| CNC(=O)c1ccc(N2CCn3c(C)nc(-c4cccnc4C(C)C)c3C2)c(F)c1 [Compound 48, 3-fluoro-N-methyl-4-{3-methyl-1-[2-(propan-2-yl)pyridin-3-yl]-5H,6H,7H,8H-imidazo[1,5-a]pyrazin-7-yl}benzamide] | > 25 |
